Here are results for four compounds from patent US20120076788A1, “C-CBL AND ANTAGONISTS THEREOF FOR THE TREATMENT AND DIAGNOSIS OF CANCER” (Centre National De La Recherche Scientifique (C.N.R.S.), priority 2009, published 2012).

Entries after “also recorded” stand apart in the source; their conditions may differ.

Data set [1] has as its system LNCaP cells. Kind of data set: Protein expression in LNCaP cells cultured with hydrogen peroxide or etoposide. The data set is classed as cell-based, human. The note with it: 24 hours; for Bax protein expression: particularly upon etoposide treatment; for Bcl-2 expression / c-Cbl expression / c-IAP2 expression: versus absence of agent. The protocol: (§1) A. c-Cbl expression upon a 24 hours treatment with 25 or 50 nM of hydrogen peroxide respectively, or with 10 or 30 μM of etoposide respectively. Expression of the anti-apoptotic Bcl-2 and c-IAP2 proteins and of the pro-apoptotic Bcl-2 family protein Bax is also shown. B. c-Cbl expression after 48 hours of c-Cbl silencing. Expression of APE1, which is indicative of oxidative stress, is shown compared with medium control (Ctrl) and with si-control (si-Ctrl).
(§2) LNCaP is a human cell line, derived from a prostatic hormone-dependent metastatic tumor. The cells were maintained in RPMI 1640 medium (Invitrogen), supplemented with 7.5% FCS, 20 μg/ml streptomycin, 20 U/ml nystatin. LNCaP were used between the passages 50-60. For western-blotting LNCaP cells were seeded in 10cm disk (22.10^5 cells) and 6 cm disk (8.10^5 cells) respectively, with 5 disks per condition. Cells were allowed to attach for 24H and treated with various concentrations of R1881 at day 0. All the cells, including the controls, were cultured in the presence of the same ethanol concentration. For H2O2 or etoposide treatment, LNCaP cells were cultured for 24 hours in the presence of known concentrations of H2O2 or etoposide. The RNA silencing was classically done in Optimen medium (Gibco) using lipofectamine 2000 following the manufacturer's instructions (Invitrogen). The c-Cbl RNAi was generated by Eurogentec. Its sequence is: […] (SEQ ID NO: 2). The siRNA controls were purchased from Invitrogen : siRNA-A (sc-37007) and siRNA-B (sc-44230).

The subject of data set [2] is c-Cbl KO and WT Mouse Embryonic Fibroblasts (MEF). The data set can be described thus: Apoptotic cells (DAPI nuclear fragmentation, TUNEL) in c-Cbl KO and WT MEFs treated with H2O2 or Etoposide. Format: cell-based. Also noted: more apoptotic cells in KO than in WT MEF cultures: dose or concentration left out as unconfirmed. The note with it: for more apoptotic cells in KO than in WT MEF cultures: average, 16 or 24 H. On the procedure:
The MEFs KO for c-cbl and the MEFs WT were cultured in DMEM, 10% FCS. […] The cells were tested for apoptosis 24 hours after treatment. The human prostate cancer lines were transfected with 125 nM of c-cbl IRNA for 6 hours, and were tested for quenching of c-cbl expression 24 or 48 hours after transfection. The treatment was the same with RAT1-MEN2A cells.
(§3) Each of them are known to involve different signaling routes, both leading to the mitochondrial pathway of apoptosis. Hydrogen peroxide activates C-Jun Kinase, whereas Etoposide blocks topoisomerase II causing dsDNA breaks and DNA-PK/p53 activation (DeYulia et al. 2005 Proc Natl Acad Sci USA 102:5044-9; Kamata and Hirata 1999 Cell Signal 11:1-14; Karpinich et al. 2002 J Biol Chem 277:16547-52).

The test system is the same in data set [3]. The data set can be described thus: Western blotting of apoptosis proteins in c-Cbl KO and WT MEFs treated with apoptotic inducers. Format: cell-based. The note with it: for XIAP expression, decrease relative to control level / c-IAP2 expression, decrease relative to control level: MEFs, apoptosis activation 24 hours (FIG. 3B). The protocol:
The western blotting (WB) experiments, immunohistochemistry (IHC) experiments and RT PCR experiments, with coamplification of the S 20 ribosomal gene, were carried out according to conventional methods already described in e.g. Omezzine et al. (2003, Biol. Reprod., 69: 752-760), Bozec et al. (2004, J. Endocr., 183: 79-90) and El Chami et al. (2005, J. Cell. Biol., 651-661).
The MEFs KO for c-cbl and the MEFs WT were cultured in DMEM, 10% FCS. The apoptosis inducers were used at a final concentration of 0.5 mM in case of H2O2, and at 10 μM in case of etoposide. The cells were tested for apoptosis 24 hours after treatment. The human prostate cancer lines were transfected with 125 nM of c-cbl IRNA for 6 hours, and were tested for quenching of c-cbl expression 24 or 48 hours after transfection. The treatment was the same with RAT1-MEN2A cells.
as §3
On the technique in general: A western blot detects proteins with antibodies after separation by electrophoresis.

Data set [4] has as its system c-Cbl. The data set can be described thus: c-Cbl expression (Western blotting, RT-PCR) in prostate lobes of adult rats exposed to flutamide. The data set is classed as in vivo, rat.
Data set [5] has as its system c-Cbl. The data set can be described thus: In situ c-Cbl staining of rat prostate after flutamide treatment. Format: in vivo. As to conditions: 10mg/kg/day, 96 H.
Data set [6] has as its system LNCaP cells. Kind of data set: c-Cbl silencing in LNCaP cells, APE1/REF1 oxidative stress signal. The data set is classed as cell-based, human. The note with it: 48 hours of c-Cbl silencing, versus Ctrl and si-Ctrl. On the procedure: as §1
as §2, with “(SEQ ID NO: 2). The siRNA controls were purchased from Invitrogen : siRNA-A (sc-37007) and siRNA-B (sc-44230).” left out

Data set [7] has as its system c-cbl. Kind of data set: Effectiveness of c-cbl iRNA on c-cbl. The note with it: human, rat and mouse c-cbl. The text has this: (§4) The c-cbl IRNA was produced by Eurogentec and had the following sequences: 5′ […] 3′ (SEQ ID NO: 2) and 5′ […] 3′ (SEQ ID NO: 3). It is effective on human, rat and mouse c-cbl. It is ineffective on cbl-b.
In the next data set the test system is cbl-b. The data set can be described thus: Effectiveness of c-cbl iRNA on cbl-b.
Text: as §4

For the compound `COc1cc([C@@H]2c3cc4c(cc3[C@@H](O[C@@H]3O[C@@H]5CO[C@@H](C)O[C@H]5[C@H](O)[C@H]3O)[C@H]3COC(=O)[C@H]23)OCO4)cc(OC)c1O` [Etoposide], in the data set on LNCaP cells [1], the Bax protein expression result is reported as “increased”, the Bcl-2 expression entry is “slightly less expressed”, the c-Cbl expression result was “slightly less expressed; also recorded: decreased” and the c-IAP2 expression entry is given as “slightly less expressed”. Besides, the “percentage of apoptotic cells” value in data set [2] (WT MEF cultures) is recorded as 5.8%. Moreover, the “more apoptotic cells in KO than in WT MEF cultures” value in data set [2] is on record as 29%. Also, the “percentage of apoptotic cells” value in data set [2] (c-Cbl KO MEF cultures) stood at 4%. For the same compound, the “cleaved caspase 3 expression” value in data set [3] (KO or WT MEFs, 24 hours) is on record as “slight but not significant increase”. Besides, in data set [3], the “XIAP expression, decrease relative to control level” value is on record as “around one/third” and the “c-IAP2 expression, decrease relative to control level” value is “around one/third”.

Turning to `OO` [H2O2, Hydrogen peroxide], in the data set with LNCaP cells [1], the Bax protein expression result was “increased”, the Bcl-2 expression entry is “slightly less expressed”, the c-Cbl expression entry is “slightly less expressed” and the c-IAP2 expression result is on record as “slightly less expressed”. Besides, the c-Cbl expression result in the data set with LNCaP cells [1] (listed as H202) is “decreased”. Moreover, the “sensitivity of c-cbl KO MEF cells versus WT MEF cells” value in data set [2] (TUNEL, FIG. 10) was “about twice”. Further, in data set [2] (WT MEF cultures), the “percentage of apoptotic cells” value was 4.9%. In data set [2], the “more apoptotic cells in KO than in WT MEF cultures” value is listed as 43%. In addition, the “percentage of apoptotic cells” value in data set [2] (c-Cbl KO MEF cultures) was 8.75%. Further, in data set [3], the “XIAP expression, decrease relative to control level” value was “around one/third” and the “c-IAP2 expression, decrease relative to control level” value is “around one/third”. For the same compound, in data set [3] (WT MEFs, 24 hours), the “activated caspase 3 expression increase” value is “two times”. In addition, the “cleaved (activated) caspase 3 expression relative to control” value in data set [3] (c-Cbl KO MEFs, 24 hours) is “three times and half”.

For `CC(C)C(=O)Nc1ccc([N+](=O)[O-])c(C(F)(F)F)c1` [flutamide], the “dose from which decreased c-cbl expression was observed” value with c-Cbl [4] (dose/effect experiments, rat ventral prostate) is given as at least 2 mg/kg/day. For the same compound, the “impact on the number of living cells” value with c-Cbl [4] (doses 2 to 10 mg/kg/day) was “very weak impact”. Moreover, the “integrity of the epithelium border” value in the data set with c-Cbl [5] was “did not affect at all”.

Consider “c-cbl IRNA: c-cbl iRNA produced by Eurogentec, sequences SEQ ID NO: 2 and SEQ ID NO: 3 (chain 1 GGGAAGGCUUCUAUUUGUU; chain 2 CUGUCCAUCUAGAGACAAA; listed as RNA, chemistry not given here)”, for which the “anti-APE1/REF1 signal (oxidative stress)” value in the data set on LNCaP cells [6] is on record as “slight decrease”. The effectiveness on c-cbl result with c-cbl [7] was “effective”. For the same compound, in the data set on cbl-b, the effectiveness on cbl-b entry was “ineffective”.
